# Assay results from patent US20250382239A1, “COMPOSITIONS FOR ENHANCING NITROGEN FERTILIZERS BY INCORPORATING ANTI-OXIDANT MOIETIES AND METHODS FOR USE THEREOF” (Verdesian Life Sciences U.S., LLC, priority 2022, published 2025).
# Test system: urease enzyme
# Assay: Draeger tube NH3 volatilization screening of urease inhibitor compositions applied on urea prills on soil
# Parameters: NH3 Draeger tube reading: unit not given here
# Details: for urease enzyme inhibitory properties: exposed to soil alone or in combination with urea-containing fertilizer
# Method: tBHQ (main active ingredient (AI)), solvents, additives (co-Actives) were obtained from commercial vendors. Draeger tube protocol was developed and used soils from NCSU Ag research facility at Oxford, North Carolina. Samples were prepared by co-dissolution in the appropriate solvent by rolling on a sample roller for 2-4 hours at ambient temperature and allowed to stand over weekend to make sure there was no haziness and/or precipitate that developed. Typical sample size was 4-4.5 g in a 12 mL cylindrical glass vial.
# The following candidates were tBHQ+[x co-Active+y Solvent] where x and y varied.
compound,measurement,setting,value
NC(N)=O [Urea],NH3 Draeger tube reading,"Round 10 (Table 11), 18 hrs",0
same,NH3 Draeger tube reading,"Round 10 (Table 11), 24 hrs",0
same,NH3 Draeger tube reading,"Round 10 (Table 11), 42 hrs",125
same,NH3 Draeger tube reading,"Round 10 (Table 11), 48 hrs",150
same,NH3 Draeger tube reading,"Round 10 (Table 11), 66 hrs",150
same,NH3 Draeger tube reading,"Round 10 (Table 11), 90 hrs",150
same,NH3 Draeger tube reading,"Round 10 (Table 11), 120 hrs",150
same,NH3 Draeger tube reading,"Round 10 (Table 11), 187 hrs",150
same,NH3 Draeger tube reading,"Round 10 (Table 11), 210 hrs",150
same,NH3 Draeger tube reading,"Round 10 (Table 11), 266 hrs",150
same,NH3 Draeger tube reading,"Round 10 (Table 11), 288 hrs",150
same,NH3 Draeger tube reading,"Round 10 (Table 11), 330 hrs",150
same,NH3 Draeger tube reading,"Round 10 (Table 11), 354 hrs",150
same,NH3 Draeger tube reading,"Round 10 (Table 11), 381 hrs",150
same,NH3 Draeger tube reading,"Round 10 (Table 11), […]",150
same,NH3 Draeger tube reading,"Round 11 (Table 12), 16 hrs",0
same,NH3 Draeger tube reading,"Round 11 (Table 12), 24 hrs",0
same,NH3 Draeger tube reading,"Round 11 (Table 12), 40 hrs",12
same,NH3 Draeger tube reading,"Round 11 (Table 12), 48 hrs",36
same,NH3 Draeger tube reading,"Round 11 (Table 12), 64 hrs",125.4
same,NH3 Draeger tube reading,"Round 11 (Table 12), 88 hrs",150
same,NH3 Draeger tube reading,"Round 11 (Table 12), 160 hrs",150
same,NH3 Draeger tube reading,"Round 11 (Table 12), 184 hrs",150
same,NH3 Draeger tube reading,"Round 11 (Table 12), 232 hrs",150
same,NH3 Draeger tube reading,"Round 11 (Table 12), 256 hrs",150
same,NH3 Draeger tube reading,"Round 11 (Table 12), […]",150
same,NH3 Draeger tube reading,"Round 12 (Table 13), 15 hrs",0
same,NH3 Draeger tube reading,"Round 12 (Table 13), 23 hrs",0
same,NH3 Draeger tube reading,"Round 12 (Table 13), 39 hrs",31
same,NH3 Draeger tube reading,"Round 12 (Table 13), 48 hrs",118
same,NH3 Draeger tube reading,"Round 12 (Table 13), 66 hrs",150
same,NH3 Draeger tube reading,"Round 12 (Table 13), 90 hrs",150
same,NH3 Draeger tube reading,"Round 12 (Table 13), 111 hrs",150
same,NH3 Draeger tube reading,"Round 12 (Table 13), 159 hrs",150
same,NH3 Draeger tube reading,"Round 12 (Table 13), 192 hrs",150
same,NH3 Draeger tube reading,"Round 12 (Table 13), 216 hrs",150
same,NH3 Draeger tube reading,"Round 12 (Table 13), 239 hrs",150
same,NH3 Draeger tube reading,"Round 12 (Table 13), 260 hrs",150
same,NH3 Draeger tube reading,"Round 12 (Table 13), 283 hrs",150
same,NH3 Draeger tube reading,"Round 12 (Table 13), 304 hrs",150
same,NH3 Draeger tube reading,"Round 12 (Table 13), 327 hrs",150
same,NH3 Draeger tube reading,"Round 12 (Table 13), 357 hrs",150
same,NH3 Draeger tube reading,"Round 12 (Table 13), 375 hrs",150
same,NH3 Draeger tube reading,"Round 12 (Table 13), […]",150
"Oc1ccc(O)cc1 [hydroquinone, reference compound]",urease enzyme inhibitory properties,,significantly less efficacious urease enzyme inhibition properties
CC(C)(C)c1cc(O)ccc1O [tert-butylhydroquinone],urease enzyme inhibitory properties,,strong urease enzyme inhibitory properties
